Test results from US11542302B2, “Modulators of melanocortin receptors for the treatment of depression and anxiety” (ARIZONA BOARD OF REGENTS ON BEHALF OF THE UNIVERSITY OF …, priority 2015, dated 2023).

Molecular target: hMC5R (Homo sapiens, UniProt P33032)
Test: hMC5R intracellular cAMP accumulation
Assay type: cell-based
Conditions: relative to MT-II

Chain of hMC5R (P33032 whole entry): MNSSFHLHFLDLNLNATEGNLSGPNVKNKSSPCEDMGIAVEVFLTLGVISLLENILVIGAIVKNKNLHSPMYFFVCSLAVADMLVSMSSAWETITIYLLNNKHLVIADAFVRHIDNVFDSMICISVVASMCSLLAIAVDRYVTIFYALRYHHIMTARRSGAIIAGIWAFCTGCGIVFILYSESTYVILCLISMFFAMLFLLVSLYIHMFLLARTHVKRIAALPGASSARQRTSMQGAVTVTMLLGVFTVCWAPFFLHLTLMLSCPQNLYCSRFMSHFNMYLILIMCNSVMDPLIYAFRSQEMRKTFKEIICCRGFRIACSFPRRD

N=C(N)NCCC[C@@H]1NC(=O)[C@@H](Cc2ccccc2)NC(=O)[C@H](CC2CCCCC2)NC(=O)c2cc([N+](=O)[O-])ccc2SC[C@@H](C(N)=O)NC(=O)[C@H](Cc2c[nH]c3ccccc23)NC1=O [compound 2]
% Act at 10 μM (% of cAMP produced at 10 μM ligand concentration, in relation to MT-II): 0%
